What was measured:
[1] = Preliminary toxicological studies
Description: The new compositions of the present invention eliminate these problems. Most of the new compositions are liquids and are soluble in petroleum hydrocarbon and most of the other common organic solvents. Thus, no dusting, metering, incorporating, mixing, and dispersing problems are encountered in using these new compositions. […] The less toxic nature of the new compositions coupled with their liquid and high solubility properties allows them to be used in many applications where IXA cannot be used.

[2] = Half-life of thermal decomposition; format: physicochemical
Protocol: (§1) It produces 179 cc. of gas per gram at 110° C. The following half-life data have been determined:
(§2) To a rapidly stirred mixture of 39.0 g. (0.2 m.) 1 -tert.-butylhydrazo-1-cyanocyclohexane, 200 ml. methylene chloride and 100 ml. water was added 14.3 g. […] The reaction was stirred an additional 15 mins. after the addition was complete. The methylene chloride layer was separated, washed twice with 50 ml. portions of saturated NaHCO3 solution, dried over anhydrous sodium sulfate, filtered and the methylene chloride evaporated on a rotating evaporator to obtain 35.0 g. of liquid product that assayed 86.5% by an ultra violet spectrophotometric analysis. Distillation gave a product, b.p. 71° C./1.2 mm. of Hg that assayed 97.6% as 1-tert.-butylazo- 1-cyanocyclohexane. The infrared spectrum was in accord with this structure. […] It produces 146 cc. of gas per gram at 130° C. The following half-life data have been determined:
The following half-life data have been determined by gas evolution technique using trichlorobenzene as the solvent: […]

[3] = Gas produced per gram on thermal decomposition; format: physicochemical; settings: 110° C.
Protocol: as §1
as §2, with “C.” for “C. The following half-life data have been determined:”

[4] = Solubility in petroleum hydrocarbon and common organic solvents; format: physicochemical
[5] = Temperature of nitrogen/gas evolution, thermal stability; settings: for temperature at which it begins to evolve nitrogen: begins to evolve nitrogen (slowly); for temperature at which it evolves nitrogen: evolves nitrogen at / above
[6] = cited from earlier work
[7] = background statement; cited from earlier work

CC(C)(C)N=NC1(C#N)CCCCC1 [IV, 1-tert.-butylazo-1-cyanocyclohexane]
toxicity relative to IXA and its decomposition residue [1]: significantly less toxic

CC(C)(C)N=NC(C)(C)C#N [Example I, Alpha-(tert.-butylazo) isobutyronitrile]
t 1/2 ([2]; 78.8° C.): 10.0 h | t 1/2 ([2]; 90° C.): 2.0 h | t 1/2 ([2]; 100° C.): 0.54 h | t 1/2 ([2]; 110° C.): 0.20 h | gas produced [3]: 179 cc. of gas per gram | solubility in petroleum solvents [4]: soluble in petroleum solvents | toxicity relative to IXA and its decomposition residue [1]: significantly less toxic

CC(C)(C)N=NC(C)(C#N)C1CC1 (stereo not drawn) [Example XII, Alpha-tert-butylazo-alpha-cyclopropylpropionitrile]
temperature at which it begins to evolve nitrogen [5]: 75 °C

CC(C)(C#N)N=NC(C)(C)c1ccccc1 [Example XI, Alpha-(tert.-cumylazo)isobutyronitrile]
temperature at which it begins to evolve nitrogen [5]: 55 °C

CC(C)CC(C)(N=NC(C)(C)C)OOC(C)(C)CCC(C)(C)OOC(C)(CC(C)C)N=NC(C)(C)C (stereo not drawn) [LXV, 2,2,5,8,8,11,11,14,17,17,decamethyl-5,14-diisobutyl-Δ^3,15-3,4,15,16-tetraaza-6,7,12,13-tetraoxaoctadecadiene]
temperature at which it evolves nitrogen [5]: 30 °C

COC(=O)CNC(=O)N=NC(C)(C)C [XVI, tert.-butylazo-N-carbmethoxymethylformamide]
temperature at which it begins to evolve nitrogen [5]: 140 °C

CC1CC(C)(C)CC(C#N)(N=NC(C)(C)C)C1 (stereo not drawn) [VIII, 1-tert.-butylazo-1-cyano-3,3,5-trimethylcyclohexane]
temperature at which it begins to evolve nitrogen [5]: 100 °C

CC(C)(C)NNC1(C#N)CCCCC1 [1-tert.-butylhydrazo-1-cyanocyclohexane]
stability on exposure to air ([5]; over extended periods): evolves HCN on exposure to air over extended periods

CC(C)(C)N=NC(C)(C)C(N)=O [XXV, 2-t-butylazo-2-carbamylpropane]
temperature at which it evolves nitrogen [5]: above 120 °C

CC(C)OC(=O)N=NC(C)(C)c1ccccc1 [Isopropyl tert.-cumylazocarboxylate]
temperature at which it evolves nitrogen [5]: 80 °C

CC(C)(C)N=NC(N)=O [Example XIII, tert.-butylazoformamide]
t 1/2 ([2]; 120° C., gas evolution technique, trichlorobenzene): 3.00 h | t 1/2 ([2]; 130° C., gas evolution technique, trichlorobenzene): 0.87 h | t 1/2 ([2]; 150° C., gas evolution technique, trichlorobenzene): 0.14 h

CC(C)(C)N=NC(=O)C(C)(C)C [Example XIX, Pivaloyl tert.-butyldiimide]
temperature at which it evolves nitrogen [5]: 35 °C

CC(C)CC(C)(N=NC(C)(C)C)OOC(C)(CC(C)C)N=NC(C)(C)C (stereo not drawn) [LVIII, Di[1-(t-butylazo)-1,3-dimethylbutyl] Peroxide]
thermal stability / gas evolution, in words [5]: began to gas rapidly upon reaching room temperature

CC(C)(C)N=NC(=O)c1ccccc1 [Example XX, Benzoyl tert.-butyldiimide]
temperature at which it evolves nitrogen [5]: 25 °C

CC(C)(C)N=NC(C)(C#N)C(C)(C)C (stereo not drawn) [IX, 2-tert.-butylazo-2-cyano-3,3-dimethylbutane]
temperature at which it begins to evolve nitrogen [5]: 95 °C

CC(C)(C)N=NC1(C(N)=O)CCCCC1 [XXIV, 1-tert. butylazo-1-carbamylcyclohexane]
temperature at which it evolves nitrogen [5]: above 120 °C

CC(C)(C)N=NC(=O)NCC(=O)O [XVII, tert.-butylazo-N-carboxymethylformamide]
temperature at which it begins to evolve nitrogen [5]: 60 °C

CC(C)(C#N)N=NC(C)(C)C#N [2,2'-azobisisobutyronitrile]
solubility in most of the organic common solvents ([6]; aromatic hydrocarbons, dioxane, alcohol, ether, carbon tetrachloride): very low or limited solubility | solubility in petroleum hydrocarbon solvents [6]: insoluble | toxicity [7]: toxic solid

CC(C)CC(C#N)(CC(C)C)N=NC(C)(C)C [Example VII, 4-tert.-butylazo-4-cyano-2,6-dimethylheptane]
temperature at which it begins to evolve nitrogen [5]: 70 °C

CC(C)(C)N=NC(C)(C#N)CCC(=O)O (stereo not drawn) [Example X, alpha-tert.-butylazo-alpha-methyl-gamma-carboxybutyronitrile]
half-life ([2]; 75° C.): 11.0 h | half-life ([2]; 85° C.): 3.15 h | temperature at which it begins to evolve nitrogen [5]: 85 °C

CC(C)(C)N=NC1=CCCCC1 [XXIII, 1(-tert.-butylazo)cyclohexene]
temperature at which it evolves nitrogen [5]: 60 °C
